From US8486974B2 (priority 2007, dated 2013)
Read-outs that look alike come from different tables or passages of the source.

Experiments:
[1] = Hydrolysis in the presence of human intestinal microsomes (HIM), with or without esterase inhibitors; format: in vitro ADME; details: 0.1 mM, pH 7.4
Procedure: Pooled plasma/serum solutions (4 ml) were prepared to the correct strength by dilution of plasma with phosphate buffer pH 7.4 (e.g. for a 10% solution 0.4 ml of plasma/serum was added to 3.6 ml of phosphate buffer pH 7.4). Following equilibration of the plasma/serum sample at 37±0.5° C. 100 μl of a stock solution of test compound in acetonitrile (1×10^−4 M) was added and 250 μl aliquots were removed at specified time intervals. Samples were transferred to 1.5 ml Eppendorf tubes containing 500 μl of a 2% w/v solution of nSO4.7H2O (water:acetonitrile, 1:1). Tubes were vortexed for 2 minutes, then centrifuged at 10,000 rpm for 3 minutes at room temperature. Supernatant was aspirated off and analysed by HPLC. The concentration of test compound and metabolites were determined with reference to calibration curves run on that day in the same concentration range and under the same experimental conditions. […] The metabolic fate of the esters under these conditions was also determined by RPHPLC by measuring the concentration of drug and metabolites in the medium as a function of time. […] The BuChE activity of plasma and microsomal samples was determined using the Ellman assay (Ellman et al., 1964). […]

[2] = Hydrolysis in human blood; format: in vitro ADME
[3] = system: platelet aggregation in human whole blood; assay: Whole blood aggregation studies (impedance method); format: cell-based
Procedure: A 500 μl aliquot of blood was mixed with 500 μl of physiological saline and allowed to incubate at 37° C. for 10 mins in the incubation well of a Chrono-Log Whole Blood Aggregometer model 591/592. The sample was then transferred to the assay well, baseline was established and appropriate volume of reagent as above was added. Aggregation was monitored over 6 mins with impedance output recorded on a chart recorder. When testing inhibitors whole blood was pre-incubated with appropriate concentrations of inhibitor in DMSO at 37° C. for a specified length of time before adding the stimulant (10 mins with stirring). Three different aggregating agents, AA (0.5 mM), ADP (10 μM) and Collagen (5 μg/ml) were used. […] DMSO in high concentrations (above 0.25%) can induce a concentration dependent change in platelet cytoplasmic ionised calcium. Before each experiment a control was run using PRP to obtain normal aggregating responses. A sample was also incubated for 10 min at 37° C. with 10 μl DMSO to ensure it was having no inhibitory effect on the aggregation response.

[4] = system: ADP-induced platelet aggregation; assay: ADP-induced platelet aggregation in PRP; format: cell-based, human
Procedure: Blood was collected from healthy volunteers who had not taken any drugs known to affect platelet function for at least 14 days prior to the study. Platelet rich plasma (PRP) and washed platelet suspensions (2.5×10^8 platelets/ml) were prepared from blood as previously described.
Platelet aggregation was measured by light aggregometry as previously described. Briefly, PRP and washed platelet samples (2.5×10^8/ml) were placed in a whole blood ionized calcium lumi-aggregometer (Chronolog Corp., Havertown, Pa., U.S.A), and (BIO/DATA CORPORATION) and incubated for 10 min at 37° C., with stirring at 900 r.p.m., prior to the addition of aggregating agents. Aggregation was initiated by the addition of agonists, and monitored by Aggro-Link software for at least 6 min. For experiments using inhibitors, aggregation was initiated after 10 min preincubation with these compounds
Collagen at different concentrations (3-5 ug/ml) was also used to induce platelet aggregation. The submaximal concentrations of agonists, i.e. the concentrations that gave approximately 95% of the maximal aggregation were used to study the effects of inhibitors of aggregation. Results were expressed in percent changes in maximal light transmission, with 100% representing light transmission of platelet medium alone.

[5] = female, human, 0.1 mM, pH 7.4
[6] = in vitro; details: human, plasma, pH 7.4

With CC(=O)Oc1ccccc1C(=O)O[C@H]1CO[C@H]2[C@@H]1OC[C@H]2OC(=O)c1ccccc1O [Compound 2, Isosorbide-2-aspirinate-5-salicylate] the “Drug disappearance” value [1] was 5 min, the “Drug disappearance: drug left” value ([1]; 60 min) was 9.4 μM left and the half-life [2] was < 2 min. For the same compound, the IC50 ([3]; Homo sapiens, Platelet, arachidonic acid, impedance method, read-out: IC50, platelet aggregation towards arachidonic acid in human whole blood) was 17 µM, the “potency in inhibition of platelet aggregation in whole blood” value ([3]; all of the aggregatory stimuli: AA (0.5 mM), ADP (10 μM), Collagen (5 μg/ml)) was “significantly greater potency than aspirin or ISDA” and the “potency relative to aspirin, inhibition of ADP-induced platelet aggregation” value [4] was “significantly more potent than aspirin”. For the same compound, the “Drug disappearance” value [5] was 10 min and the half-life at 2.4 µM [6] was 2 min.
